According to publication PMC12557383, “Development of a Potent and Functional In Vivo Peptide Competitive Inhibitor for the Toxin MazF” (Journal of Medicinal Chemistry, 2025):

Assays:
Assay type in all cases: cell-based, Escherichia coli
[1] = tested on: E. coli cells expressing MazF; assay: Antibiotic survival assay (ciprofloxacin), coexpression with MazF; settings: 4 μg/mL ciprofloxacin, up to 4 h; toxin induced 1 h before antibiotic
Method: This experiment was conducted as described above (“bacterial growth assay”) until the induction of the toxin. However, 1 h after mazF induction with 0.5% of L-arabinose, approximately two million cells were removed from each culture and diluted with LB (final volume of 10 mL) supplemented with IPTG, L-arabinose, and antibiotics for plasmid maintenance. Here, an aliquot of 1 mL was withdrawn, which represents time zero (before the implementation of antibiotic stress). Cells were then exposed to 4 μg/mL ciprofloxacin and incubated at 37 °C/215 rpm for 4 h. Aliquots of 1 mL were taken at intervals of 1 h and washed three times with LB medium (5,000 rpm/5 min/4 °C) to remove the antibiotic. After the last wash step, the culture medium was removed, and the cell pellet was resuspended in 100 μL of LB medium. 10-fold serial dilutions were made from this solution using LB medium, and 2 μL of each dilution was spotted on solid LB-agar supplemented with antibiotics for the maintenance of plasmids. Plates were incubated at 37 °C for 24 h and photographed. The experiment was repeated at least three times.

[2] = tested on: E. coli cells superexpressing MazF; assay: Oxygen consumption assay, coexpression with MazF; settings: cells coexpressing MazF and recombinant SamF; 1 mM IPTG, 1% L-arabinose, 37 °C
Method: This experiment was conducted as described above (“bacterial growth assay”). However, 90 min after induction of recombinant samF with 1 mM IPTG, an aliquot of 1 mL of a cell suspension containing approximately 2.5 million cells was removed from each culture and placed into the chamber of an Oroboros O2K oxygraph (Bioplast) instrument. After equilibration of the oxygen consumption rate, mazF expression was induced by the addition of 1% of L-arabinose, and the consumption rate and amount of dissolved oxygen was monitored for a period of about 3 h. The experiment was carried out at 37 °C under orbital shaking at 200 rpm and repeated at least three times.

[3] = tested on: E. coli cells superexpressing MazF; assay: Resazurin assay (redox state), coexpression with MazF; settings: cells coexpressing MazF and recombinant SamF, 1 h MazF expression, 75 μg/mL resazurin
Method: This experiment was conducted as described above (“bacterial cell growth assay”). However, 1 h after mazF induction with 1% of L-arabinose, approximately 40 millions of cells in 200 μL of LB (with antibiotics, IPTG and L-arabinose) were taken and incubated with 75 μg/mL of resazurin (final concentration). The experiment was performed in a 96-well plate in triplicate. The plate was incubated at 37 °C/70 rpm, and the color development, due to resazurin reduction, was monitored every hour visually and by scanning the dye absorbance between 500–700 nm.

[4] = tested on: E. coli cells superexpressing MazF; assay: Glucose uptake assay (2-NBDG, flow cytometry), coexpression with MazF; settings: cells coexpressing MazF and recombinant SamF, 400 μM 2-NBDG
Method: This experiment was carried out as described above (“bacterial cell growth assay”). However, 1 h after mazF induction with 1% of L-arabinose, cells were harvested by centrifugation (10 min/4,500 rpm/4 °C). The cell pellet was resuspended in 5 mL of M9 media without glucose or any other carbon source (M9^–glucose). Cells were pelleted again and resuspended in M9^–glucose as above. Ten million cells were removed from this solution in a final volume of 5 mL of M9^–glucose and incubated with 400 μM of the fluorescent glucose analog 2-NDBG (Thermofisher) at 37 °C/300 rpm. Aliquots of 0.5 mL were taken at 1 h intervals for a period of 3 h. To remove the noninternalized 2-NBG dye, cells were centrifuged (10 min/4,500 rpm/4 °C) and the supernatant was removed. After a new wash step with 1 mL of M9^–glucose, the cell pellet was resuspended in 0.5 mL of M9^–glucose. Cells were placed on ice until all samples were collected and then immediately subjected to flow cytometry on a BD FACS Canto II system (BD Biosciences) with an excitation/emission wavelength at 488/530 nm. The percentage of cells labeled with 2-NGDG was calculated relative to the fluorescence of the stainless control with FlowJo software.

Question: “MSHLFWAQFDEYF [recombinant SamF, recombinantly expressed SamF ([…]) from pET-24a-samF in E. coli]” was tested. Which “Survival of cells coexpressing MazF and the peptide under ciprofloxacin (result in words)” value [1] did it give?
Answer: The value was “almost eradicated after only 1 h”.

Question: What about the “Oxygen consumption rate after mazF induction” value [2] of the same sequence?
Answer: Its value is 20 pmol/s.

Question: And the “Time to complete reduction of resazurin” value [3]?
Answer: Its value is 3 to 4 h.

Question: And the “Percentage of cells labeled with 2-NBDG” value ([4]; first hour)?
Answer: The value was 64%.

Question: What about the “Percentage of cells labeled with 2-NBDG” value ([4]; second hour) of the same sequence?
Answer: Its value is 87%.

Question: And the “Percentage of cells labeled with 2-NBDG” value ([4]; third hour)?
Answer: Its value is 96%.
